From patent US20160324172A1, “Post-Harvest Coating for Fresh Produce” (Jones-Hamilton Co., priority 2015, published 2016)

Assay: Solubility of emulsifier/stabilizer in the coating solution (visual evaluation)
Type: physicochemical
Protocol: For this experiment, coating solutions consisted of: 200 g tap water, 14 g SAS (7 w %), 30 g cornstarch (15 w %), and varying amounts of diverse emulsifiers/stabilizers.
Treatment: For each emulsifying material, one grape tomato was soaked for 1 minute in respective coating solution, and allowed to dry on a cooling tray. If material generated a visually preferred coating, 8 more grape tomatoes were coated (ntotal=9) in the same solution to generate enough samples for a microbial test. […] A second grape tomato was soaked, and if the stickiness improved, the concentration of the emulsifying ingredient was further increased until preferred coating was achieved. 8 more tomatoes were coated at preferred concentration (ntotal=9) for microbial testing.
Evaluation: Coatings were photographed and evaluated visually after the material dried. Microbial test of tomatoes with preferred coatings: Grape tomatoes were stored for 7 days at room temperature on cooling trays. Three tomatoes (triplicates) were swabbed with pre-wetted cotton swabs after: 24 hours, 3 days and 7 days. For dilution purpose, the swabs were transferred to Eppendorf tubes with 1 ml PBS. Three 1 ul loops (triplicates) were used to transfer three 1 ul samples per Eppendorf tube to nutrient agar plates. Per swab: 1 Eppendorf tubes and 3 nutrient agar plates. Per tomato: 3 Eppendorf tubes and 9 nutrient agar plates. Nutrient agar plates were incubated at room temperature for 7 days. Colony forming units were counted after: 24 hours, 3 days and 7 days.

- solubility in the water-based coating solution: good solubility
- Coating solution (Solubility of emulsifier/stabilizer) (200 g tap water, 14 g SAS, 30 g cornstarch plus emulsifier, visual evaluation): Good
- Solubility (overall assessment, solubility in coating solution): Good
Structure (SMILES): OCC(O)CO [Vegetable glycerin, glycerin]
